Data reported in PMC5999544 (Bioorganic & medicinal chemistry letters, 2017).
“Also recorded” adds a separate entry of the source.

Assays:
ASK1 [1] = biological target: T1, ASK1 (Homo sapiens, UniProt Q99683); assay: ASK1 Alphascreen biochemical assay
T1 sequence (Q99683 1-1374): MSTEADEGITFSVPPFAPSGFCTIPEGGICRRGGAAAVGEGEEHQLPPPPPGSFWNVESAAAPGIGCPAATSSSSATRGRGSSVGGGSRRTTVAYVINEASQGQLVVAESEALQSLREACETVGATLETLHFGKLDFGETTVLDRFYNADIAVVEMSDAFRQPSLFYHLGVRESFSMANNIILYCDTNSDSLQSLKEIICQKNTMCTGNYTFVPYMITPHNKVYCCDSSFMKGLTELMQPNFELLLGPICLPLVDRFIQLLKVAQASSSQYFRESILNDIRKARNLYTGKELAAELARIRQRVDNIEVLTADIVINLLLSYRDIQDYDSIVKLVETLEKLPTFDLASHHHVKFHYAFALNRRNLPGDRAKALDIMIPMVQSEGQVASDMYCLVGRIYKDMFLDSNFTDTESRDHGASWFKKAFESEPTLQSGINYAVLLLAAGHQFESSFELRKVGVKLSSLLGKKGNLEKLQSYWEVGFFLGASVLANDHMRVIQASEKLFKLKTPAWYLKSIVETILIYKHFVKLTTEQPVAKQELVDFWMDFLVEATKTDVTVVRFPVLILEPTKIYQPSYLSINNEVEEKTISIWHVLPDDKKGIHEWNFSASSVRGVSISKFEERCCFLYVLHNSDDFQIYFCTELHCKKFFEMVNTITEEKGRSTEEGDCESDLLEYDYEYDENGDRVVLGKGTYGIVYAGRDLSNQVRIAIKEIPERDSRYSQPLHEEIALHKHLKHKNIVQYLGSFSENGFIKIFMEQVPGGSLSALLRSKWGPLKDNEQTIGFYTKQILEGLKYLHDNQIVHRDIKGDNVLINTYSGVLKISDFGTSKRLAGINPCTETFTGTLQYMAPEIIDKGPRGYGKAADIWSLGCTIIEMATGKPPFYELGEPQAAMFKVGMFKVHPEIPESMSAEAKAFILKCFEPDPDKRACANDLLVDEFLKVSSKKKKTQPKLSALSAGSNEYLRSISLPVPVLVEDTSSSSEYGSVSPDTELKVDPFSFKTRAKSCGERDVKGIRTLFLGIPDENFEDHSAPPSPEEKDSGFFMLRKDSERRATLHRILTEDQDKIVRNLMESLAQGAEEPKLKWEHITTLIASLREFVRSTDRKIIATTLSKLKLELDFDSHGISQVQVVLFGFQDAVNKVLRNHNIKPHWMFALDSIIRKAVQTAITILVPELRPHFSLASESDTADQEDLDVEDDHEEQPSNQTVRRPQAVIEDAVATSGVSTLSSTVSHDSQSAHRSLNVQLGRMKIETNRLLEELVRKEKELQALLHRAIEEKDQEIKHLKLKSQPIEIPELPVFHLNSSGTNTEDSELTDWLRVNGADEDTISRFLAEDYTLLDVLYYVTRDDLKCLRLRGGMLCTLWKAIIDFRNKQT

CYP3A4 = CYP3A4 (Homo sapiens, UniProt P08684); assay: Cytochrome P450 inhibition assay 3A4; assay type: in vitro ADME
Sequence of CYP3A4 (P08684 whole entry): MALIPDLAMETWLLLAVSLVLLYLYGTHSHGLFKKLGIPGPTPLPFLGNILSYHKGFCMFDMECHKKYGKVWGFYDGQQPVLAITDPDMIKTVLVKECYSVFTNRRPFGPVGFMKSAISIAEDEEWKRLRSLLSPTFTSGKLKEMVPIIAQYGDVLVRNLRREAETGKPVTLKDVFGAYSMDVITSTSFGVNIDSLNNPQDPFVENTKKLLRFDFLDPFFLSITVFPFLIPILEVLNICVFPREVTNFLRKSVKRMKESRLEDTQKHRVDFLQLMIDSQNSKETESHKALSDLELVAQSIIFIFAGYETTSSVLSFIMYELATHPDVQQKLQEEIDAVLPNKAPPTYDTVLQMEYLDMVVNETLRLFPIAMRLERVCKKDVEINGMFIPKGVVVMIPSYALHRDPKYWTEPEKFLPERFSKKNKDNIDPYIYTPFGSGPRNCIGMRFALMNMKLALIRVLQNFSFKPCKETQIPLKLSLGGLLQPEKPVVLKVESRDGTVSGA

CYP2C9 = CYP2C9 (Homo sapiens, UniProt P11712); assay: Cytochrome P450 inhibition assay 2C9; assay type: in vitro ADME
Sequence of CYP2C9 (P11712 whole entry): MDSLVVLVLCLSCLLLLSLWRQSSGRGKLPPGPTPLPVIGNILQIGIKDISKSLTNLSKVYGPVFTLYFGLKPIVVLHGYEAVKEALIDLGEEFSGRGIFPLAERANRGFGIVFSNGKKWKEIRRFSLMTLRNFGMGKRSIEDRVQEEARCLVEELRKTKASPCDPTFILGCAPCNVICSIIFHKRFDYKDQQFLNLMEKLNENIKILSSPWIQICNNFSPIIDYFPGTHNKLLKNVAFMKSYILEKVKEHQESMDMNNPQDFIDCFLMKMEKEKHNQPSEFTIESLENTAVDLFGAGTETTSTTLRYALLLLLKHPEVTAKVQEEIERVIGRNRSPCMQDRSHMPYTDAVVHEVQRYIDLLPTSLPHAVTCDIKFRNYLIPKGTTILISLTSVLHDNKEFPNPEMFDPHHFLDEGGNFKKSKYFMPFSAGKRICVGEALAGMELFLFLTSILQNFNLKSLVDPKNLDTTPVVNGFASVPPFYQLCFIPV

ASK1 [2] = biological target: T1, ASK1; assay: Enzyme kinetic study, Lineweaver-Burk plot at six ATP concentrations; assay type: biochemical; details: with or without compound
INS-1e cell line = assay: TNFα-induced phosphorylation of endogenous MKK6 at Ser207, immunoblot; assay type: cell-based; details: rat INS-1e cells

inhibition at 10 µM (CYP3A4) [%] | inhibition at 10 µM (CYP2C9) [%] | SMILES | ASK1 inhibitory activity (in words) (ASK1 [1]) | further results
> 85 | > 85 | CC(=O)Nc1cccc(Nc2ncc3cc(-c4cn[nH]c4)ccc3n2)c1 [Compound 23] | submicromolar inhibitory activities against ASK1 | –
< 20 | < 20 | CC(=O)Nc1cccc(Nc2ncc3ccccc3n2)c1 [Compound 12] | submicromolar inhibitory activities against ASK1 | mode of ASK1 inhibition (ASK1 [2]): ATP competitive; TNFα-induced MKK6 ser207 phosphorylation (INS-1e cell line): protects against TNFα-induced MKK6^ser207 phosphorylation; also recorded: reduction of p-MKK6^ser207; fold improvement in potency in comparison to quinazoline 9 (ASK1 [1]; 12 versus 9): > 10 fold

Continued, molecule first:

SMILES | inhibition at 10 µM (CYP3A4) [%] | inhibition at 10 µM (CYP2C9) [%] | ASK1 inhibitory activity (in words) (ASK1 [1]) | further results
Cn1cc(-c2ccc3nc(Nc4cccc(N(C(=O)C(C)(C)C)c5ccccc5)c4)ncc3c2)cn1 [Compound 29] | – | – | did not show improvement in ASK1 activity | –
CC(C)(C)C(=O)N(c1ccccc1)c1cccc(Nc2ncc3cc(-c4cn[nH]c4)ccc3n2)c1 [Compound 28] | – | – | did not show improvement in ASK1 activity | –
CN(C)c1cccc(Nc2nccc(NCCOc3ccccc3)n2)c1 [Compound 3] | – | – | – | fold less active as an ASK1 inhibitor compared to 1 (ASK1 [1]; 3 versus 1): approximately 250 fold
